Source: patent publication US5344922A, “4-hydroxyquinaldic acid derivatives” (priority 1992, dated 1994)
Where “and” joins values, the source holds several entries; their conditions need not be identical. Equal values may be shown once. Read-outs that look alike come from different tables or passages of the source.

Key:
[1] = target: T1, NMDA receptor/channel complex (Rattus norvegicus, UniProt P35439); test: biochemical; type: biochemical
T1 construct: buffy coat rat cortical membrane preparation; from tissue; host or cells: rat cerebral cortex, buffy coat membranes
Protocol: (§1) The tissue was homogenized in a glass grinding vessel with a teflon pestle in ice-cold 0.32 M sucrose and centrifuged for 10 min at 1000×g. The resultant supernatant was decanted and recentrifuged at 20,000×g for 20 min. The pellet was resuspended in 20 volumes of ice-cold dH20 and centrifuged for 20 min at 8000×g. The supernatant and the buffy coat were then re-collected and recentrifuged at 48,000×g for 20 min. The pellet was resuspended in 20 volumes of ice-cold water and centrifuged for 20 min at 48,000×g, after which it was stored at -20° C. for not more than two weeks. On the day of the assay, the pellet was thawed, resuspended in 40 volumes of buffer, incubated at 37° C. for 20 min in the appropriate buffer, and centrifuged for 10 min at 48,000×g. The pellet was then resuspended in 40 volumes of buffer and recentrifuged at 48,000×g for 10 min. This step was repeated twice before the pellet finally resuspended in a buffer suitable for the particular binding assay. Protein concentrations were determined by the method described by Smith (1985).
D. ^3 H-TCP Binding Assay
The dissociative anesthetics ketamine and phencyclidine (PCP) selectively antagonize depolarizations produced by NMDA.
^3 H-TCP binding assays were initiated by addition of 100 μl aliquots of membrane homogenate (approximately 150 μg protein) to test tubes containing 5 nM ^3 H-TCP in the presence or absence of the test drug(s) dissolved in 10 mM HEPES buffer pH 7.5. The final volume in each tube was 1 ml, and tubes were incubated for 2 hr at 23° C. Non-specific binding was defined as that remaining in the presence of 30 μM PCP. The filtration procedure was used as described above except that the filters were presoaked for one hour in 0.03% polyethyleneimine (PEI) (Sigma) to reduce filter binding. Scintillation counting was performed as described above.
(§2) Previously washed rat cortical membranes were resuspended at approximately 0.1 mg protein/ml in the appropriate buffer (pH 7.4 at 23° C.), and 30 ml were placed in each of 3 or 4 150×25 mm polystyrene culture dishes on a rotating shaker. A 200 μL aliquot of a 10 mM solution of 7-chloro-4-hydroxy-2-quinoline carbonyl azide dissolved in DMSO was added and the solution was mixed for 10 min in the dark. Photolysis was accomplished by exposure of the reaction mixture to 366 nm long-wave ultraviolet light (Transilluminator, Fotodyne, Model 3-3000) at a distance of 5 cm for 10 min with continuous mixing.
(§3) The Hill slopes (nH) and maximal displacement of radioligand binding were estimated by non-linear curve-fitting to a sigmoidal algorithm using the EBDA portion of the LIGAND data analysis software package for the IBM-PC (Elsevier). K1 values were obtained from the LIGAND analysis of the same data. KD and Bmax estimates were obtained by non-linear curve-fitting of the saturation isotherm using programs from the same software package (Munson and Rodbard, 1980). All data analysis was performed on each of 3-7 individual experiments performed in triplicate (7 concentrations) or duplicate (10 concentrations). Reported values are the mean ±S.E.M. of these analyses. For displacement experiments, these values were plotted with the sigmoid curve taken as the average of the sigmoidal fits of each individual experiment.

[2] = target: T2, strychnine-insensitive glycine site associated with the NMDA receptor/channel complex (Rattus norvegicus, UniProt P35439); test: 3H-glycine binding assay in cortical membranes; conditions: for Hill slope (nH), displacement of 3H-glycine binding: mean ± S.E.M.
T2 construct: buffy coat rat cortical membrane preparation; from tissue; host or cells: rat cerebral cortex, buffy coat membranes
Protocol: as §1, with “^3 H-Glycine (^3 H-GLY), ^3 H-TCP and NMDA specific ^3 H-GLU binding assays were performed in a buffy coat rat cortical membrane preparation (Jones et al., 1989). The tissue” for “The tissue”
C. ^3 H-Glycine Binding Assay
^3 H-glycine binding assays were initiated by addition of 100 μl aliquots of membrane homogenate (100-150 μg protein) to test tubes containing 20 nM ^3 H-glycine in the presence or absence of the test drug(s) dissolved in 50 mM Tris acetate or 50 mM Na-free HEPES buffer pH 7.5 for a final volume of 1 ml, followed by incubation for 30 min at 4° C. […] The filtration procedure and scintillation counting were performed as described above.
as §3

[3] = system: glycine modulatory site; conditions: Kemp et al., 1988; cited from earlier work
[4] = system: NMDA receptor; test: Photolabeling of cortical membranes followed by SDS polyacrylamide gel electrophoresis; type: binding, rat; conditions: cortical membranes photolabeled, 366 nm; bands Rf 0.71 and 0.53
Protocol: E. Photolabeling with 7-chloro-4-hydroxy-2-quinoline carbonyl azide
(§4) Thus, in all experiments, 7-chloro-4-hydroxy-2-quinoline carbonyl azide was first dissolved at high concentrations (1-10 mM) in dimethylsulfoxide (DMSO) and then diluted in the appropriate physiological buffer. […] The appropriate DMSO control was performed at the same time, and no changes in the binding of radioligands were ever observed. This procedure, and all subsequent procedures where non-photolyzed material was desired, were performed under red light.
as §2, with “Photolysis was accomplished by exposure of the reaction mixture to 366 nm long-wave ultraviolet light (Transilluminator, Fotodyne, Model 3-3000) at a distance of 5 cm for 10 min with continuous mixing.” left out
Cortical membranes were photolabeled with 7-chloro-4-hydroxy-2-quinoline as described in Example II, section E. Protein concentration of this preparation was determined using the BCA protein assay kit (Pierce, Rockford, Ill.). […]
Gels were removed and fluorescent bands visualized and recorded using a transilluminator (Fotodyne, New Berlin, Wis.) fitted with four 366nm UV bulbs (15 watts). […]

[5] = Solubility; type: physicochemical
Protocol: as §4

[6] = target: NMDA recognition site; test: NMDA-specific 3H-L-glutamate binding assay in cortical membranes; design: species or system rat
Protocol: as §1, with “^3 H-Glycine (^3 H-GLY), ^3 H-TCP and NMDA specific ^3 H-GLU binding assays were performed in a buffy coat rat cortical membrane preparation (Jones et al., 1989). The tissue” for “The tissue”, “at 48,000×g. […] Protein concentrations” for “at 48,000×g. The pellet was then resuspended in 40 volumes of buffer and recentrifuged at 48,000×g for 10 min. This step was repeated twice before the pellet finally resuspended in a buffer suitable for the particular binding assay. Protein concentrations”, “Smith (1985). […]” for “Smith (1985).”
For equilibrium saturation experiments, different concentrations of ^3 H-glutamate (diluted with unlabeled L-glutamate) ranging from 10 to 320 nM in the presence or absence of test drug(s) were examined. Non-specific binding was defined as that remaining in the presence of 300 μM NMDA and was determined at the lowest and the highest concentration of ^3 H-L-glutamate. […]

[7] = system: NMDA-mediated neuronal response; conditions: glycine-reversible; Fletcher and Lodge, 1988; cited from earlier work
[8] = target: T2, strychnine-insensitive glycine site associated with the NMDA receptor/channel complex; conditions: read-out: K1 at the glycine site (reported); Fletcher and Lodge, 1988; cited from earlier work
[9] = tissue treated with 7-chloro-4-hydroxyquinaldic acid and exposed to UV light

NCC(=O)O [glycine]
slope of glycine concentration-response, 3H-TCP binding [1]: 1.02 and 0.93 and 1.15 | Emax ([1]; read-out: maximal increase of 3H-TCP binding by glycine): 150%

O=C(O)c1cc(O)c2ccc(Cl)cc2n1 [7-chloro-4-hydroxyquinaldic acid]
Ki [2]: 0.49 ± 0.05 µM | Hill slope (nH), displacement of 3H-glycine binding ([2]; rat cortical membranes): 0.74±0.03 | activity at the glycine modulatory site [3]: selective antagonist of the glycine modulatory site | reduction of 3H-TCP binding in the absence of added glycine [1, 9]: 100% | rightward parallel shift of the glycine concentration-response curve [1, 9]: 4 fold

[N-]=[N+]=NC(=O)c1cc(O)c2ccc(Cl)cc2n1 [7-chloro-4-hydroxy-2-quinoline carbonyl azide]
fluorescent bands on SDS polyacrylamide gel after photolabeling [4]: two distinct fluorescent bands | Ki [2]: 2.4 ± 0.2 µM | decrease in the apparent affinity for the 3H-glycine binding site on introduction of an azido group ([2]; azide relative to 7-chloro-4-hydroxyquinaldic acid): 5 fold | mode of displacement of 3H-glycine binding ([2]; rat cortical membranes, red light): apparently competitive | Hill slope (nH), displacement of 3H-glycine binding ([2]; rat cortical membranes): 0.90±0.08 | selectivity for the 3H-glycine binding site ([2]; relative to the NMDA recognition site labeled by 3H-L-glutamate): selective affinity for the ^3 H-glycine binding site relative to the NMDA recognition site | mode of inhibition of glycine action on 3H-TCP binding, non-photolyzed ([1]; non-photolyzed azide): competitive antagonism of the actions of glycine | inhibition at 10 µM ([1]; read-out: decrease of 3H-TCP binding in the absence of added glycine): 70% | mode of inhibition of glycine-enhanced 3H-TCP binding, UV irradiated ([1]; tissue UV irradiated in the presence of azide): distinctly non-competitive inhibition of glycine-enhanced ^3 H-TCP binding | solubility in polar solutions [5]: limited solubility | Ki ([6]; n=5, mean ± S.E.M., read-out: K1 for the NMDA site): 101 ± 12 µM | displacement of NMDA-specific 3H-L-glutamate binding ([6]; rat cortical membranes, FIG. 2B): less than 10%

NC1CCN(O)C1=O (stereo not drawn) [HA-966, 1-hydroxy-3-aminopyrrolidone-2]
effect on NMDA-mediated neuronal response [7]: reduce NMDA-mediated neuronal response in a glycine-reversible manner | Ki [8]: ~5 µM
